Results as given in ChEMBL document CHEMBL3785081 (J Med Chem, 2016).

How the values were obtained:
[1] = Lipophilicity, log D of the compound at pH 7.4; type: physicochemical; details: buffer
[2] = tested on: Liver microsome; experiment: Intrinsic clearance in human liver microsomes; type: ADME

| logD [1] | CLint [2] [µL/min/g] | Structure (SMILES) |
| --- | --- | --- |
| 2.5 | 18 | C=CC(=O)N1C[C@H](COc2nc(Nc3cnn(C)c3)nc3[nH]cc(Cl)c23)[C@@H](OC)C1 [PF-06459988] |
| 2 | 12 | C=CC(=O)N1C[C@H](COc2nc(Nc3cnn(C)c3)nc3[nH]cc(Cl)c23)[C@@H](O)C1 |
| 2.7 | 28 | C=CC(=O)N1C[C@H](COc2nc(Nc3cnn(C)c3)nc3[nH]cc(Cl)c23)[C@@H](F)C1 |
| 2.4 | 24 | C=CC(=O)N1C[C@@H](COc2nc(Nc3cnn(C)c3)nc3[nH]cc(Cl)c23)[C@H](OC)C1 |
| 2.91 | 45 | C=CC(=O)N1CC[C@@H](COc2nc(Nc3cnn(C)c3)nc3[nH]cc(Cl)c23)C1 |

The next lines start with the molecule.

| Structure (SMILES) | logD [1] | CLint [2] [µL/min/g] |
| --- | --- | --- |
| C=CC(=O)N1C[C@H](COC)[C@@H](COc2nc(Nc3cnn(C)c3)nc3[nH]cc(Cl)c23)C1 | 2.9 | 23 |
| C=CC(=O)Nc1cccc(Oc2nc(Nc3ccc(N4CCN(C)CC4)cc3)nc3[nH]ccc23)c1 | 2.7 | 20 |
| C=CC(=O)N1C[C@H](COc2nc(Nc3cnn(C)c3)nc3[nH]ccc23)[C@@H](C(F)(F)F)C1 | 2.7 | 26 |
| C=CC(=O)Nc1cccc(Oc2nc(Nc3cnn(C)c3)nc3[nH]ccc23)c1 | 3.2 | 66 |
| C#CCCn1cc(Nc2nc(OC[C@H]3CN(C(=O)C=C)C[C@@H]3OC)c3c(Cl)c[nH]c3n2)cn1 | 3 |  |
| C=CC(=O)N1CC[C@@H](COc2nc(Nc3cnn(C)c3)nc3[nH]ccc23)C1 | 2.1 | 56 |
| C=CC(=O)N1C[C@H](CO)[C@@H](COc2nc(Nc3cnn(C)c3)nc3[nH]cc(Cl)c23)C1 | 2.3 | 13 |
| C#CCOc1cc2ncnc(Nc3ccc(F)c(Cl)c3)c2cc1NC(=O)C=C | 4 |  |
| C=CC(=O)Nc1cccc(Oc2nc(Nc3ccn(C)n3)nc3[nH]ccc23)c1 | 3 | 11 |
| C=CC(=O)N1C[C@H](COc2nc(Nc3cnn(C)c3)nc3[nH]cc(Cl)c23)[C@@H](C(F)(F)F)C1 | 3 | 37 |
